Source: patent US6107317A, “N-(substituted glycyl)-thiazolidines, pharmaceutical compositions containing them and their use in inhibiting dipeptidyl peptidase-IV” (Novartis AG, priority 1999, dated 2000)
Structures can show the parent of a compound that is named as a salt.

Key:
human plasma DPP-IV = target: T1, human plasma DPP-IV (Homo sapiens, UniProt P27487); experiment: DPP-IV activity in human plasma; type: biochemical; conditions: substrate H-Glycine-Proline-AMC, pH 7.8, room temperature, 20 min
T1 construct: DPP-IV activity in human and rat plasma; from tissue; host or cells: human plasma
T1 sequence (P27487 39-766 limits assumed): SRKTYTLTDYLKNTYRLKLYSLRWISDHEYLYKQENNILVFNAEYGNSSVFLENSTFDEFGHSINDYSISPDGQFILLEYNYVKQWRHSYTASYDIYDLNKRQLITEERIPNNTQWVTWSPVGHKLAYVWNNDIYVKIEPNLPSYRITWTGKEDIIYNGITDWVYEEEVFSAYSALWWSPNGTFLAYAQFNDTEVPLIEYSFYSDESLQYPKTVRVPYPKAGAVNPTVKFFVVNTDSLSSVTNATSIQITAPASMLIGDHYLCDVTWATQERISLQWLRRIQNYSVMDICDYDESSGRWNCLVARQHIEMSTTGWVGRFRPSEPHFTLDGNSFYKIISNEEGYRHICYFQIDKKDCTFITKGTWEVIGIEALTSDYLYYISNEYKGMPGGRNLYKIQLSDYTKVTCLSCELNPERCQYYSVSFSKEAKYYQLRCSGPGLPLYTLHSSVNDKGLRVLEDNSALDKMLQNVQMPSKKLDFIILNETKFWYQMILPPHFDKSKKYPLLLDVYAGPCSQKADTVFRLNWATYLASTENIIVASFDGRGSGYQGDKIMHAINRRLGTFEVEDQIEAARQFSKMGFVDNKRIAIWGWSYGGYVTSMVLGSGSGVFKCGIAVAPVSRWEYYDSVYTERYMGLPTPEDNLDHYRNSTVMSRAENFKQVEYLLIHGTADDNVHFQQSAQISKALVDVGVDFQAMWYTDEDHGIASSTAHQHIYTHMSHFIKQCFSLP
Procedure: (§1) Briefly, five μl of plasma are added to 96-well flat-bottom mictotiter plates (Falcon), followed by the addition of 5 μl of 80 mM MgCl2 in incubation buffer (25 mM HEPES, 140 mM NaCl, 1% RIA-grade BSA, pH 7.8). After a 5 min. incubation at room temperature, the reaction is initiated by the addition of 10 μl of incubation buffer containing 0.1 mM substrate (H-Glycine-Proline-AMC; AMC is 7-amino-4-methylcoumarin). The plates are covered with aluminum foil (or kept in the dark) and incubated at room temperature for 20 min. […] A fluorescence-concentration curve of free AMC is generated using 0-50 μM solutions of AMC in assay buffer. The curve generated is linear and is used for interpolation of substrate consumption (catalytic activity in nmoles substrate cleaved/min). As with the previous assay, the potency of the test compounds as DPP-IV inhibitors, expressed as IC50, is calculated from 8-point, dose-response curves using a 4 parameter logistic function.

rat plasma DPP-IV = target: T2, rat plasma DPP-IV (Rattus norvegicus, UniProt P14740); experiment: DPP-IV activity in rat plasma; type: biochemical; conditions: substrate H-Glycine-Proline-AMC, pH 7.8, room temperature, 20 min
T2 construct: DPP-IV activity in human and rat plasma; from tissue; host or cells: rat plasma
T2 sequence (P14740 37-767 limits assumed): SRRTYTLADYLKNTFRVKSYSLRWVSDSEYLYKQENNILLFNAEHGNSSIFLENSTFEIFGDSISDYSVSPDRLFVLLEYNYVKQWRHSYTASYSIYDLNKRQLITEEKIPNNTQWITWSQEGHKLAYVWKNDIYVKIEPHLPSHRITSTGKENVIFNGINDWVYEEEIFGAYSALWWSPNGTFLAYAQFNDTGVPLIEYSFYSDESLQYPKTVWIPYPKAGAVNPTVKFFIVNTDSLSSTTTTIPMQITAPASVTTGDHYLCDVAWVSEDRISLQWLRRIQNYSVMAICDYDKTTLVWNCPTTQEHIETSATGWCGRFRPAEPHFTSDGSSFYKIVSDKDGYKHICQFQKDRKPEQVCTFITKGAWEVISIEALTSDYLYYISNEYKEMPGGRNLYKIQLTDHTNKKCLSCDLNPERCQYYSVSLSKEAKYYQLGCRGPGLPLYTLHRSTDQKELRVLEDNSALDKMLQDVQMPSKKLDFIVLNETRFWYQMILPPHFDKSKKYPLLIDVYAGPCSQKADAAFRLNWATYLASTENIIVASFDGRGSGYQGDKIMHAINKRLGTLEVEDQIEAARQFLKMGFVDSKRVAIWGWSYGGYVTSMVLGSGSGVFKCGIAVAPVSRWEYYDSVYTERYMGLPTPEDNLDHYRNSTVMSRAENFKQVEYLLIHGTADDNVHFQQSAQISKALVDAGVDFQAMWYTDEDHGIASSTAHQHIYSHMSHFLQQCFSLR
Procedure: as §1

DPP-IV = target: T3, DPP-IV (Homo sapiens, UniProt P27487); experiment: Caco-2 DPP-IV Assay (inhibition of DPP-IV activity from human colonic carcinoma cell extracts); type: biochemical; conditions: solubilized Caco-2 protein 20 μg; substrate H-Alanine-Proline-pNA; pH 7.4; room temperature, 10 minutes
T3 construct: host or cells: Caco-2, differentiated to induce DPP-IV expression; cell extract solubilized in 0.5% nonidet-P40
T3 sequence (P27487 whole entry): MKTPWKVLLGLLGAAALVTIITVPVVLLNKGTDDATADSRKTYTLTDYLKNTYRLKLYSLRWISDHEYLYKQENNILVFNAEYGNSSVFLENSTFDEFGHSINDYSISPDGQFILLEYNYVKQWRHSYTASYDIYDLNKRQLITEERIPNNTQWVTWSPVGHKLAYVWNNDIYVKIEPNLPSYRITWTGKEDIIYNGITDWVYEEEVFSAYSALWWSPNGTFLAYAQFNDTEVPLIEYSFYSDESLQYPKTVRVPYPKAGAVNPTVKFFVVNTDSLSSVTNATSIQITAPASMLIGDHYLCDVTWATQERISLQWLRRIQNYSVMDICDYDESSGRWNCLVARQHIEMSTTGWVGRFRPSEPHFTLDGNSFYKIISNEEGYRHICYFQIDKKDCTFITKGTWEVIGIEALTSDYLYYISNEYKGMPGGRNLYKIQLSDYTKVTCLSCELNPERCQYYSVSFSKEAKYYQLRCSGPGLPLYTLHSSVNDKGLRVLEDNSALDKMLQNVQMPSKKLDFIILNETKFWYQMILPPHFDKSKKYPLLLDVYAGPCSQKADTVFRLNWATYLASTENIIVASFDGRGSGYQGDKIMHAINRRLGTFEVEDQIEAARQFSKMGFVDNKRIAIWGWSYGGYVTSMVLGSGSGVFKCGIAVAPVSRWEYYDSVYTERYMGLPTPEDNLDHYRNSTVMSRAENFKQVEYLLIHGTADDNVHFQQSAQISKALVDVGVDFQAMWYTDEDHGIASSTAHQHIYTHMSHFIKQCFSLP
Procedure: The human colonic carcinoma cell line Caco-2 was obtained from the American Type Culture Collection (ATCC HTB 37). Differentiation of the cells to induce DPP-IV expression was accomplished as described by Reisher, et al. in an article entitled "Increased expression of . . . intestinal cell line Caco-2" in Proc. Natl. Acad. Sci., Vol. 90, pgs. […] Cell extract is prepared from cells solubilized in 10 mM Tris-HCl, 0.15 M NaCl, 0.04 t.i.u. aprotinin, 0.5% nonidet-P40, pH 8.0, which is centrifuged at 35,000 g for 30 min. at 4° C. to remove cell debris. The assay is conducted by adding 20 μg solubilized Caco-2 protein, diluted to a final volume of 125 μl in assay buffer (25 mM Tris-HCl pH 7.4, 140 mM NaCl, 10 mM KCl, 1% bovine serum albumin) to microtiter plate wells. The reaction is initiated by adding 25μl of 1 mM substrate (H-Alanine-Proline-pNA; pNA is p-nitroaniline). The reaction is run at room temperature for 10 minutes after which time a 19 μl volume of 25% glacial acetic acid is added to stop the reaction. […] A standard curve of free p-nitroaniline is generated using 0-500 μM solutions of free pNA in assay buffer. The curve generated is linear and is used for interpolation of substrate consumption (catalytic activity in nmoles substrate cleaved/min). […] The potency of the test compounds as DPP-IV inhibitors, expressed as IC50, is calculated from 8-point, dose-response curves using a 4-parameter logistic function.

[1] = diabetic and non-diabetic subjects, Diabetes, Vol. 44, pgs. 1126-1131; cited from earlier work

O=C(CNCCNc1ccccn1)N1CCSC1 [Ex. 1, 1-[2-[(pyridin-2-yl)amino]ethylamino]acetylthiazolidine dihydrochloride]
IC50 (human plasma DPP-IV): 6.8 µM | IC50 (rat plasma DPP-IV): 10.5 µM | IC50 (DPP-IV): 10.3 µM

GLP-I amide: GLP-I amide
degradation when administered by subcutaneous or intravenous routes [1]: rapidly degraded

O=C(CNCCNc1ccc(Cl)cn1)N1CCSC1 [Ex. 4, 1-[2-[(5-chloropyridin-2-yl)amino]ethylamino]acetylthiazolidine]
IC50 (human plasma DPP-IV): 21 µM | IC50 (rat plasma DPP-IV): 7.1 µM | IC50 (DPP-IV): 31.1 µM

O=C(CNC1(CO)CCCC1)N1CCSC1 [Ex. 2, 1-[(1-hydroxymethylcyclopent-1-yl)amino]acetylthiazolidine hydrochloride]
IC50 (human plasma DPP-IV): 5.7 µM | IC50 (rat plasma DPP-IV): 3.3 µM | IC50 (DPP-IV): 25.3 µM
